Measured values published in patent publication US5053404A, “Novel steroid derivatives, pharmaceutical compositions containing them and process for preparing same” (Richter Gedeon Vegyeszeti Gyar R. T., priority 1989, dated 1991).

Tests used:
thymus [1] = assay: Thymus involution (systemic side effect) in local granuloma sac model; assay type: in vivo, rat; conditions: 10th day
Text: (§1) Two principal (essential) demands are set up against topically used steroid antiinflammatory drugs: a) they should be as active as possible in various animal experiments used for investigating the antiinflammatory action; and b) they should induce the lowest harmful systemic side effect. This latter effect can be well characterized by the thymus weight-decreasing action (involution). The possibly lowest toxicity (i.e. the possibly highest LD50 value) is an essential demand for any active agent (drug) used in therapy.
(§2) 3) The local granuloma sac model
(§3) Groups consisting of 10 female RG Hann Wistar rats each weighing 130 to 150 g were used. After shaving the back of the animals 25 ml of air were injected beneath the back skin and 1 ml of 2% croton oil inducing inflammation was introduced to the air sac. After 5 days the content of the sac was removed by suction and once 3 doses each of the glucocorticoids to be tested or budesonide respectively, in a volume of 0.5 ml suspension in Tween 80 were administered by an injection syringe. On the 10th day following the start of the experiment the animals were sacrificed and the exudate liquid of the sac (expressed as ml) was measured. The percentage of the antiinflammatory effect was calculated based on the decrease in the volume of exudate related to that of the control.
Then, the thymi of the animals were excised and the harmful systemic side effect of the test compounds was calculated as a percentage based on the comparison of the thymus weight of animals treated with the test compounds to that of the untreated control group.

[2] = Comparative acute toxicity (LD50), mice; conditions: mouse, in vivo, 2-week observation
Description: (§4) 1) Comparative study on the acute toxicity
(§5) Animal groups consisting of 10 CFLP mice or RG Hann Wistar rats each of both sexes were used. The doses causing the death of 50% of the animals (LD50 values) within a 2-week observation period following subcutaneous (s.c.) or oral (p.o.) administration were determined.

local granuloma sac = assay: Local granuloma sac model, exudate (antiinflammatory effect); assay type: in vivo, rat; conditions: for Exudate / Inhibition (decrease in volume of exudate): 10th day; for Inhibition (decrease in volume of exudate): vs control; for Relative activity: relative to budesonide = 100, on 2.00 μg/sac line
Description: as §2
This method was used to investigate the antiexudative action of the topically administered glucocorticoids.
as §3, with “After shaving the back of the animals 25 ml of air were injected beneath the back skin and 1 ml of 2% croton oil inducing inflammation was introduced to the air sac.” left out

[3] = Comparative acute toxicity (LD50), rats; conditions: rat, in vivo, 2-week observation
Description: as §4, §5

[4] = system: croton oil-induced contact dermatitis; assay: Croton oil-induced contact dermatitis model, ear weight; assay type: in vivo, rat; conditions: for Ear weight / Inhibition (of ear weight increase): topical on ear, 6 hours; for Inhibition (of ear weight increase): vs croton oil control; for Relative activity: relative to budesonide = 100, on 10 μg/ml line
Description: (§6) 2) The croton oil-induced contact dermatitis model
(§7) Infantile female rats weighing 45 to 55 g were used. Animals had previously been selected for this test, the ear weight of which increased at least by 100% under effect of a treatment with 2% croton oil.
(§8) The test compounds were dissolved in a 2% croton oil mixture in various concentrations and then applied onto the ears of the animals. The control group was treated only with the croton oil inducing inflammation. Six hours after treatment the ears of the animals were cut off and weighed. For evaluation, the diminution of the ear weight increase was expressed as "percentage of inhibition", in comparison to the control treated with croton oil only. In the 48th hour the thymi of the animals were excised and the harmful systemic side effect of the test compounds was evaluated by comparing their thymus weight to that of the control animals.

experimental asthma = assay: Experimental asthma model (ovalbumin); assay type: in vivo, guinea-pig; conditions: 50 mg/kg i.p. 20 hours before i.v. ovalbumin provocation; for Dyspnoea (percentage occurrence): control 33; for Survival: control 66
Text: 4) The experimental asthma model
This test was used to investigate the antiasthmatic effect of the test compounds.
It is known that by ovalbumin (OA) treatment an experimental asthma can be induced on guinea-pigs which is accompanied by dyspnoea and causes the death of the animals in severe cases. This test is useful to detect an eventual antiasthmatic effect of the test compounds.
Guinea-pigs of both sexes weighing 300 to 400 g each were used. The experimental animals were sensitized by i.p. ovalbumin (10/ μg of OA+100 mg of aluminum hydroxide/animal) and after 30 days they were provoked by the intravenous (i.v.) administration of 100 mg/kg of OA. Both the test compounds and budesonide used as reference substance were given 50 mg/kg i.p. dose 20 hours before the provocation. The percentage occurrence of dyspnoea and the survival were observed.

thymus [5] = assay: Thymus involution (systemic side effect) in croton oil-induced contact dermatitis model; assay type: in vivo, rat; conditions: 48th hour
Text: as §1, §6, §7, §8

CCCC1O[C@@H]2C[C@H]3[C@@H]4CCC5=CC(=O)C=C[C@]5(C)[C@H]4[C@@H](O)C[C@]3(C)[C@]2(C(=O)CO)O1 (stereo partly drawn) [Budesonide, (22RS)-11β,21-dihydroxy-16α,17-butylidenedioxypregna-1,4-dien-3,20-dione, reference compound]
Thymus involution (thymus [1]; 0.22 μg/sac): 0%
Thymus involution (thymus [1]; 2.00 μg/sac): 0%
Thymus involution (thymus [1]; 18.00 μg/sac): 24.43%
LD50 at 336 h ([2]; po, female): 1360 mg/kg
LD50 at 336 h ([2]; po, male): 1080 mg/kg
LD50 at 336 h ([2]; sc, female): 109 mg/kg
LD50 at 336 h ([2]; sc, male): 131 mg/kg
Exudate (local granuloma sac; 0.22 μg/sac): 6.38 ± 0.4 mL
Inhibition (decrease in volume of exudate) (local granuloma sac; 0.22 μg/sac): 49.89%
Exudate (local granuloma sac; 2.00 μg/sac): 4.00 ± 0.3 mL
Inhibition (decrease in volume of exudate) (local granuloma sac; 2.00 μg/sac): 68.58%
Exudate (local granuloma sac; 18.00 μg/sac): 1.84 ± 0.5 mL
Inhibition (decrease in volume of exudate) (local granuloma sac; 18.00 μg/sac): 85.55%
Relative activity (local granuloma sac): 100
LD50 at 336 h ([3]; po, female): 2110 mg/kg
LD50 at 336 h ([3]; po, male): 3400 mg/kg
LD50 at 336 h ([3]; sc, female): 71.5 mg/kg
LD50 at 336 h ([3]; sc, male): 59.4 mg/kg
Ear weight ([4]; 1 μg/ml in 2% croton oil): 144.71 ± 2.0 mg
Inhibition (of ear weight increase) ([4]; 1 μg/ml): 19.43%
Ear weight ([4]; 10 μg/ml in 2% croton oil): 127.78 ± 2.0 mg
Inhibition (of ear weight increase) ([4]; 10 μg/ml): 39.53%
Ear weight ([4]; 100 μg/ml in 2% croton oil): 117.07 ± 2.7 mg
Inhibition (of ear weight increase) ([4]; 100 μg/ml): 52.24%
Relative activity [4]: 100
Dyspnoea (percentage occurrence) (experimental asthma): 20%
Survival (experimental asthma): 60%
Thymus involution (thymus [5]; 1 μg/ml topical on ear): 9.2%
Thymus involution (thymus [5]; 10 μg/ml topical on ear): 3.9%
Thymus involution (thymus [5]; 100 μg/ml topical on ear): 26.1%

CCCC1O[C@@H]2C=C3[C@@H]4CCC5=CC(=O)C=C[C@]5(C)[C@H]4[C@@H](O)C[C@]3(C)[C@]2(C(=O)CO)O1 (stereo partly drawn) [Ex. No. 2, 11β,16α,17,21-tetrahydroxypregna-1,4,14-trien-3,20-dion-16,17-cyclic butyraldehyde acetal]
Thymus involution (thymus [1]; 0.22 μg/sac): 0%
Thymus involution (thymus [1]; 2.00 μg/sac): 0%
Thymus involution (thymus [1]; 18.00 μg/sac): 0%
LD50 at 336 h ([2]; po, female): > 4000 mg/kg
LD50 at 336 h ([2]; po, male): > 4000 mg/kg
LD50 at 336 h ([2]; sc, female): 823 mg/kg
LD50 at 336 h ([2]; sc, male): 585 mg/kg
Exudate (local granuloma sac; 0.22 μg/sac): 7.47 ± 0.5 mL
Inhibition (decrease in volume of exudate) (local granuloma sac; 0.22 μg/sac): 41.32%
Exudate (local granuloma sac; 2.00 μg/sac): 5.10 ± 0.4 mL
Inhibition (decrease in volume of exudate) (local granuloma sac; 2.00 μg/sac): 59.94%
Exudate (local granuloma sac; 18.00 μg/sac): 1.36 ± 0.2 mL
Inhibition (decrease in volume of exudate) (local granuloma sac; 18.00 μg/sac): 89.32%
Relative activity (local granuloma sac): 62
LD50 at 336 h ([3]; po, female): > 3000 mg/kg
LD50 at 336 h ([3]; po, male): > 4000 mg/kg
LD50 at 336 h ([3]; sc, female): 843 mg/kg
LD50 at 336 h ([3]; sc, male): 1210 mg/kg
Ear weight ([4]; 1 μg/ml in 2% croton oil): 144.60 ± 2.8 mg
Inhibition (of ear weight increase) ([4]; 1 μg/ml): 19.56%
Ear weight ([4]; 10 μg/ml in 2% croton oil): 131.10 ± 2.7 mg
Inhibition (of ear weight increase) ([4]; 10 μg/ml): 35.59%
Ear weight ([4]; 100 μg/ml in 2% croton oil): 118.20 ± 2.2 mg
Inhibition (of ear weight increase) ([4]; 100 μg/ml): 50.90%
Relative activity [4]: 78
Dyspnoea (percentage occurrence) (experimental asthma): 14%
Survival (experimental asthma): 43%
Thymus involution (thymus [5]; 1 μg/ml topical on ear): 0%
Thymus involution (thymus [5]; 10 μg/ml topical on ear): 0%
Thymus involution (thymus [5]; 100 μg/ml topical on ear): 9.8%

CC(C)C1O[C@@H]2C=C3[C@@H]4CCC5=CC(=O)C=C[C@]5(C)[C@H]4[C@@H](O)C[C@]3(C)[C@]2(C(=O)CO)O1 (stereo partly drawn) [Ex. No. 6, 11β,16α,17,21-tetrahydroxypregna-1,4,14-trien-3,20-dion-16,17-cyclic isobutyraldehyde acetal]
Thymus involution (thymus [1]; 0.22 μg/sac): 4.98%
Thymus involution (thymus [1]; 2.00 μg/sac): 4.98%
Thymus involution (thymus [1]; 18.00 μg/sac): 6.22%
LD50 at 336 h ([2]; po, female): 2790 mg/kg
LD50 at 336 h ([2]; po, male): 2930 mg/kg
LD50 at 336 h ([2]; sc, female): 634 mg/kg
LD50 at 336 h ([2]; sc, male): 333 mg/kg
Exudate (local granuloma sac; 0.22 μg/sac): 6.52 ± 0.6 mL
Inhibition (decrease in volume of exudate) (local granuloma sac; 0.22 μg/sac): 48.79%
Exudate (local granuloma sac; 2.00 μg/sac): 5.08 ± 0.4 mL
Inhibition (decrease in volume of exudate) (local granuloma sac; 2.00 μg/sac): 60.10%
Exudate (local granuloma sac; 18.00 μg/sac): 1.69 ± 0.3 mL
Inhibition (decrease in volume of exudate) (local granuloma sac; 18.00 μg/sac): 86.73%
Relative activity (local granuloma sac): 71
LD50 at 336 h ([3]; po, female): > 3000 mg/kg
LD50 at 336 h ([3]; po, male): > 4000 mg/kg
LD50 at 336 h ([3]; sc, female): 164 mg/kg
LD50 at 336 h ([3]; sc, male): 162 mg/kg
Ear weight ([4]; 1 μg/ml in 2% croton oil): 144.40 ± 3.5 mg
Inhibition (of ear weight increase) ([4]; 1 μg/ml): 19.80%
Ear weight ([4]; 10 μg/ml in 2% croton oil): 126.90 ± 2.7 mg
Inhibition (of ear weight increase) ([4]; 10 μg/ml): 40.57%
Ear weight ([4]; 100 μg/ml in 2% croton oil): 115.10 ± 2.6 mg
Inhibition (of ear weight increase) ([4]; 100 μg/ml): 54.57%
Relative activity [4]: 118
Dyspnoea (percentage occurrence) (experimental asthma): 0%
Survival (experimental asthma): 100%
Thymus involution (thymus [5]; 1 μg/ml topical on ear): 0%
Thymus involution (thymus [5]; 10 μg/ml topical on ear): 1.7%
Thymus involution (thymus [5]; 100 μg/ml topical on ear): 0%
